In US8178506B2, “Oligomeric compounds and compositions for use in modulation of small non-coding RNAs” (Regulus Therapeutics Inc., priority 2003, dated 2012):
Entries after “also recorded” stand apart in the source; their conditions may differ. In the oligonucleotide strings, read from the 5' end, every base follows the letter of its sugar. An asterisk marks phosphorothioate; unmarked linkages are phosphodiester. Other units and linkages are bracketed, terminal groups are in braces. A string of capitals states the bases alone. e = 2'-O-(2-methoxyethyl) (MOE); [5mC] = 5-methylcytosine; d = 2'-deoxy (DNA)

Tests used:
Type in all cases: cell-based, human
mir-15a pri-miRNA = mir-15a pri-miRNA expression in T47D cells (real-time RT-PCR); conditions: for mir-15a pri-miRNA expression % UTC: real-time RT-PCR; for levels of the mir-15a pri-miRNA molecule: 100 nM
Source text: The gapmer oligomeric compounds targeting the mir-15b and mir-15-a-1 mature miRNAs described above were also transfected into T47D cells according to standard procedures. In addition, uniform 2′-MOE and 2′-MOE gapmer oligomeric compounds targeting the mature mir-15a-1 and mir-15b miRNAs were also transfected into T47D cells, for analysis of their effects on mir-15a-1 and mir-15b pri-miRNA levels. The oligomeric compounds ISIS Number 327927 (SEQ ID NO: 345), a uniform 2′-MOE compound and ISIS Number 345391 (SEQ ID NO: 345), a 2′-MOE 5-10-7 gapmer compound, both target mir-15b. The oligomeric compounds ISIS Number 327951 (SEQ ID NO: 369), a uniform 2′-MOE compound, and ISIS Number 345411 (SEQ ID NO: 369), a 2′-MOE 5-10-7 gapmer compound, both target mir-15a-1. Oligomeric compounds ISIS Number 129686 ([…]; SEQ ID NO: 901), and ISIS Number 129691 ([…]; SEQ ID NO:902), both universal scrambled controls, as well as ISIS Number 116847 ([…]; SEQ ID NO: 844) targeting an unrelated gene, PTEN, were used as negative controls. ISIS Numbers 129686, 129691, and 116847 are phosphorothiated 2′-MOE 5-10-5 gapmers, and all cytosines are 5-methylcytosines. T47D cells (seeded in 12-well plates) were treated with these oligomeric compounds, and RNA was isolated from the treated cells by lysing in 1 mL TRIZOL™ (Invitrogen) and total RNA was prepared using the manufacturer's recommended protocols. To assess the effects of these compounds on expression of the mir-15a or mir-15b pri-miRNA molecules, real-time RT-PCR analysis was performed using either the primer/probe set specific for the mir-15a pri-miRNA molecule described above, or a primer probe set specific for the mir-15b pri-miRNA molecule: ISIS 339320 ([…]; SEQ ID NO: 903) was used as the forward primer for the mir-15b pri-miRNA, ISIS 339321 ([…] ACTGT; SEQ ID NO: 904) was used as the reverse primer for the mir-15b pri-miRNA, and ISIS 339322 ([…]; SEQ ID NO: 905) was used as the probe. Total RNA was quantified using RiboGreen™ RNA quantification reagent (Molecular Probes, Inc. Eugene, Oreg.), expression levels observed for each target were normalized to 5.8S rRNA, and values are expressed relative to the untreated control. Inhibition of expression of the mir15a or mir-15b pri-miRNA molecules upon treatment with these oligomeric compounds is was assessed and expressed as a percentage of RNA levels in untreated control cells.
Using the real-time RT-PCR methods described, the expression levels of the mir-15a pri-miRNA were compared in T47D cells treated with the nested series of uniform 2′-MOE oligomeric compounds, targeting and spanning the entire length of the mir-15a pri-miRNA. The region encompassing the mir-15a primary transcript (the complement of nucleotides 31603159 to 31603468 of GenBank Accession number NT—024524.13; AAATAATTATG […]) is incorporated herein as SEQ ID NO: 906. ISIS Number 356215 (SEQ ID NO: 879) targets a region flanking and immediately 5′ to the predicted 5′ Drosha cleavage site in the mir-15a pri-miRNA. ISIS Number 356218 (SEQ ID NO: 881) targets aregion in the loop of the mir-15a pri-miRNA. ISIS 356227 (SEQ ID NO: 883) targets a region flanking and immediately 3′ to the predicted 3′ Drosha cleavage site in the mir-15a pri-miRNA. Additionally, oligomeric compound ISIS 327951 (SEQ ID NO: 369), a uniform 2′-MOE compound targeting the mature mir-15a-1 miRNA, was tested for comparison. Oligomeric compounds ISIS 327901 (SEQ ID NO: 319) targeting the mature mir-143 miRNA; ISIS 129690, ([…]; SEQ ID NO: 907), a phosphorothioate 5-10-5 MOE gapmer used as a universal scrambled control; and ISIS 116847 ([…]; SEQ ID NO: 844), a uniform 5-10-52′-MOE gapmer targeting an unrelated gene, PTEN, were used as negative controls. Using the transfection methods previously described, T47D cells were treated with 100 nM of each of these oligomeric compounds. […]

HepG2 cells = experiment: Insulin signaling assay in HepG2 cells, marker genes taken together; conditions: for expression of the IGFBP-1, PEPCK-c and follistatin marker genes: 100 nM
[1] = test system: preadipocytes / differentiating adipocytes; experiment: Adipocyte differentiation assay, markers taken together; conditions: differentiating adipocytes, % of UTC (Table 55)

Q: For “116847 (antisense e[5mC]*eT*eG*e[5mC]*eT*dA*dG*d[5mC]*d[5mC]*dT*d[5mC]*dT*dG*dG*dA*eT*eT*eT*eG*eA) [compound 116847]”, which “mir-15a pri-miRNA expression % UTC” value (mir-15a pri-miRNA) is on record?
A: 132 % UTC

Q: “356231 (eT*eT*e[5mC]*eA*eG*eA*eA*eG*eA*eT*e[5mC]*eA*eG*eA*eT*e[5mC]*e[5mC]*eT*eT*eG) [compound 356231]” was tested. Which “mir-15a pri-miRNA expression % UTC” value (mir-15a pri-miRNA) did it give?
A: 811 % UTC

Q: For “356232 (eA*eA*eA*eT*eA*eT*eA*eT*eT*eT*eT*e[5mC]*eT*eT*e[5mC]*eA*eG*eA*eA*eG) [compound 356232]”, which “mir-15a pri-miRNA expression % UTC” value (mir-15a pri-miRNA) is on record?
A: 631 % UTC

Q: For “AACCGATTTCAAATGGTGCTAG (anti-miR; chemistry not fully specified) [ISIS 327913, uniform 2′-MOE PS; targets mir-29c]”, which “expression of the IGFBP-1, PEPCK-c and follistatin marker genes” value (HepG2 cells; HepG2, 1 nM insulin) is on record?
A: increased expression of the IGFBP-1, PEPCK-c and follistatin marker genes

Q: What about the “expression of the IGFBP-1, PEPCK-c and follistatin marker genes” value (HepG2 cells; HepG2, basal (no insulin)) of the same substance?
A: increased expression of the IGFBP-1, PEPCK-c and follistatin marker genes

Q: “CACAAATTCGGATCTACAGGGTA (anti-miR; chemistry not fully specified) [ISIS 327949, uniform 2′-MOE PS; targets mir-10a]” was tested. Which “expression of the IGFBP-1 and follistatin marker genes” value (HepG2 cells; HepG2, basal (no insulin)) did it give?
A: increased expression of the IGFBP-1 and follistatin marker genes

Q: How did the “expression of the IGFBP-1, PEPCK-c and follistatin marker genes” value (HepG2 cells; HepG2, 1 nM insulin) turn out when “CCAAGTTCTGTCATGCACTGA (anti-miR; chemistry not fully specified) [ISIS 327964, uniform 2′-MOE PS; targets mir-152]” was run?
A: increased expression of the IGFBP-1, PEPCK-c and follistatin marker genes

Q: “GAAAGAGACCGGTTCACTGTGA (anti-miR; chemistry not fully specified) [ISIS 327923, uniform 2′-MOE PS; targets mir-128b]” was tested. Which “expression of the IGFBP-1, PEPCK-c and follistatin marker genes” value (HepG2 cells; HepG2, 1 nM insulin) did it give?
A: increased expression of the IGFBP-1, PEPCK-c and follistatin marker genes

Q: For “GGGGTATTTGACAAACTGACA (anti-miR; chemistry not fully specified) [ISIS 327961, uniform 2′-MOE PS; targets mir-223]”, which “expression of the IGFBP-1, PEPCK-c and follistatin marker genes” value (HepG2 cells; HepG2, 1 nM insulin) is on record?
A: increased expression of the IGFBP-1, PEPCK-c and follistatin marker genes

Q: What about the “expression of the IGFBP-1 and follistatin marker genes” value (HepG2 cells; HepG2, basal (no insulin)) of the same substance?
A: increased expression of the IGFBP-1 and follistatin marker genes

Q: Which “expression of the IGFBP-1 and follistatin marker genes” value (HepG2 cells; HepG2, basal (no insulin)) does the source give for “ISIS 341802: SEQ ID NO: 1806, targeting mir-191 (antisense AGCUGCUUUUGGGAUUCCGUUG; all 2'-MOE, all phosphorothioate, methylation of C and T or U not given here)” here?
A: increased expression of the IGFBP-1 and follistatin marker genes

Q: How did the “IGFBP-1 and PEPCK-c marker genes” value (HepG2 cells; HepG2, basal (no insulin)) turn out when “ISIS 341803: SEQ ID NO: 760, targeting mir-206 (antisense CCACACACTTCCTTACATTCCA; all 2'-MOE, all phosphorothioate, methylation of C not given here)” was run?
A: increases in the IGFBP-1 and PEPCK-c marker genes

Q: With “ISIS 356215: uniform 2′-MOE PS; SEQ ID NO: 879; region immediately 5′ to 5′ Drosha cleavage site of mir-15a pri-miRNA (antisense eT*eG*e[5mC]*eT*eA*e[5mC]*eT*eT*eT*eA*e[5mC]*eT*e[5mC]*e[5mC]*eA*eA*eG*eG*eT*eT) [uniform 2′-MOE PS; region immediately 5′ to 5′ Drosha cleavage site of mir-15a pri-miRNA]” as the substance, how does the “levels of the mir-15a pri-miRNA molecule” value (mir-15a pri-miRNA) read?
A: stimulate an increase in levels of the mir-15a pri-miRNA molecule; also recorded: stimulate the greatest increases in expression of the mir-15a pri-miRNA

Q: For “ISIS 356216: uniform 2′-MOE PS; SEQ ID NO: 880; targets mir-15a pri-miRNA (antisense eG*e[5mC]*eA*e[5mC]*e[5mC]*eT*eT*eT*eT*e[5mC]*eA*eA*eA*eA*eT*e[5mC]*e[5mC]*eA*e[5mC]*eA) [uniform 2′-MOE PS; targets mir-15a pri-miRNA]”, which “levels of the mir-15a pri-miRNA molecule” value (mir-15a pri-miRNA) is on record?
A: stimulate an increase in levels of the mir-15a pri-miRNA molecule

Q: With “ISIS 356218: uniform 2′-MOE PS; SEQ ID NO: 881; loop of the mir-15a pri-miRNA (antisense eT*eG*eG*e[5mC]*e[5mC]*eT*eG*e[5mC]*eA*e[5mC]*e[5mC]*eT*eT*eT*eT*e[5mC]*eA*eA*eA*eA) [uniform 2′-MOE PS; loop of the mir-15a pri-miRNA]” as the substance, how does the “levels of the mir-15a pri-miRNA molecule” value (mir-15a pri-miRNA) read?
A: stimulate an increase in levels of the mir-15a pri-miRNA molecule

Q: For “ISIS 356221: uniform 2′-MOE PS; SEQ ID NO: 882; targets mir-15a pri-miRNA (antisense eA*eG*e[5mC]*eA*e[5mC]*eA*eA*eT*eA*eT*eG*eG*e[5mC]*e[5mC]*eT*eG*e[5mC]*eA*e[5mC]*e[5mC]) [uniform 2′-MOE PS; targets mir-15a pri-miRNA]”, which “levels of the mir-15a pri-miRNA molecule” value (mir-15a pri-miRNA) is on record?
A: stimulate an increase in levels of the mir-15a pri-miRNA molecule

Q: With “ISIS 356227: uniform 2′-MOE PS; SEQ ID NO: 883; region immediately 3′ to 3′ Drosha cleavage site of mir-15a pri-miRNA (antisense eT*e[5mC]*e[5mC]*eT*eT*eG*eT*eA*eT*eT*eT*eT*eT*eG*eA*eG*eG*e[5mC]*eA*eG) [uniform 2′-MOE PS; region immediately 3′ to 3′ Drosha cleavage site of mir-15a pri-miRNA]” as the substance, how does the “levels of the mir-15a pri-miRNA molecule” value (mir-15a pri-miRNA) read?
A: stimulate an increase in levels of the mir-15a pri-miRNA molecule; also recorded: stimulate the greatest increases in expression of the mir-15a pri-miRNA

Q: Which “levels of the mir-15a pri-miRNA molecule” value (mir-15a pri-miRNA) does the source give for “ISIS 356229: uniform 2′-MOE PS; SEQ ID NO: 884; targets mir-15a pri-miRNA (antisense eA*eG*eA*eT*e[5mC]*eA*eG*eA*eT*e[5mC]*e[5mC]*eT*eT*eG*eT*eA*eT*eT*eT*eT) [uniform 2′-MOE PS; targets mir-15a pri-miRNA]” here?
A: stimulate an increase in levels of the mir-15a pri-miRNA molecule

Q: For “ISIS 356231: uniform 2′-MOE PS; targets mir-15a pri-miRNA (antisense eT*eT*e[5mC]*eA*eG*eA*eA*eG*eA*eT*e[5mC]*eA*eG*eA*eT*e[5mC]*e[5mC]*eT*eT*eG)”, which “levels of the mir-15a pri-miRNA molecule” value (mir-15a pri-miRNA) is on record?
A: stimulate an increase in levels of the mir-15a pri-miRNA molecule

Q: Which “levels of the mir-15a pri-miRNA molecule” value (mir-15a pri-miRNA) does the source give for “ISIS 356232: uniform 2′-MOE PS; targets mir-15a pri-miRNA (antisense eA*eA*eA*eT*eA*eT*eA*eT*eT*eT*eT*e[5mC]*eT*eT*e[5mC]*eA*eG*eA*eA*eG)” here?
A: stimulate an increase in levels of the mir-15a pri-miRNA molecule

Q: Which “five markers of adipocyte differentiation” value [1] does the source give for “TGTAAACCATGATGTGCTGCTA (anti-miR; chemistry not fully specified) [ISIS 327927, uniform 2′-MOE PS; targets mir-15b]” here?
A: increase in all five markers of adipocyte differentiation

Q: And the “levels of the mir-15a pri-miRNA molecule” value (mir-15a pri-miRNA)?
A: stimulate an increase in levels of the mir-15a pri-miRNA molecule
